According to patent US20250313533A1, “QUINOLINE CARBOXYLIC ACID ESTER COMPOUND AND PREPARATION METHOD AND USE THEREOF” (priority 2019, published 2025):

What was measured:
[1] = tested on: cucumber seedlings; assay: Safety for plant growth after application; format: in vivo; conditions: dosage 200 ppm
In short: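 Using pot-grown cucumber seedlings indoors, we recorded plant height growth rate together with chlorophyll content and leaf area following compound application.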

[2] = tested on: pathogenic bacteria causing bacterial angular leaf spot in cucumbers; assay: In vitro bactericidal activity, bacterial angular leaf spot in cucumbers; format: cell-based, pseudomonas; conditions: read-out: inhibitory rate; for inhibition at 1 ppm: dosage 1 ppm; for inhibition at 5 ppm: dosage 5 ppm
[3] = tested on: pathogenic bacteria causing fire blight in pears; assay: In vitro bactericidal activity, fire blight in pears; format: cell-based, erwinia; conditions: Erwinia, read-out: inhibitory rate; for inhibition at 1 ppm: dosage 1 ppm; for inhibition at 5 ppm: dosage 5 ppm
[4] = tested on: pathogenic bacteria causing fruit blotch in watermelons; assay: In vitro bactericidal activity, fruit blotch in watermelons; format: cell-based, acidovorax; conditions: read-out: inhibitory rate; for inhibition at 1 ppm: dosage 1 ppm; for inhibition at 5 ppm: dosage 5 ppm
[5] = tested on: black shank in potatoes; assay: Living crops in vivo protective activity, potatoes (root irrigation); conditions: Solanum tuberosum, read-out: efficacy against black shank in potatoes; for pest or weed control at 5 ppm: dosage 5 ppm; for pest or weed control at 10 ppm: dosage 10 ppm
Description: Root irrigation was carried out on the potatoes for tests according to the designed concentration of the agents. The dosage for each plant was 200 mL and was kept consistent (also for the control). The black shank bacteria were inoculated on the second day after the application. The results were investigated according to the disease condition.

[6] = tested on: pathogenic bacteria causing bacterial wilt in tobacco; assay: whole plant or invertebrate; format: cell-based, ralstonia; conditions: read-out: inhibitory rate
[7] = tested on: pathogenic bacteria causing black rot in Chinese cabbages; assay: In vitro bactericidal activity, black rot in Chinese cabbages; format: cell-based, xanthomonas; conditions: Xanthomonas, read-out: inhibitory rate; for inhibition at 1 ppm: dosage 1 ppm; for inhibition at 5 ppm: dosage 5 ppm
[8] = tested on: stem rot in sweet potatoes; assay: whole plant or invertebrate; conditions: read-out: efficacy against stem rot in sweet potatoes
[9] = tested on: pathogenic bacteria causing bacterial wilt in cassava; assay: organism not typed; format: cell-based; conditions: read-out: inhibitory rate
[10] = tested on: bacterial blight in rice; assay: whole plant or invertebrate; conditions: Oryza sativa, read-out: efficacy against bacterial blight in rice
[11] = tested on: pathogenic bacteria causing bacterial blight in rice; assay: whole plant or invertebrate; format: cell-based, xanthomonas; conditions: read-out: inhibitory rate
[12] = tested on: pathogenic bacteria causing black shank in potatoes; assay: In vitro bactericidal activity, black shank in potatoes; format: cell-based; conditions: read-out: inhibitory rate; for inhibition at 1 ppm: dosage 1 ppm; for inhibition at 5 ppm: dosage 5 ppm
[13] = tested on: fruit blotch in watermelons; assay: whole plant or invertebrate; conditions: read-out: efficacy against fruit blotch in watermelons
[14] = tested on: soft rot in Chinese cabbages; assay: whole plant or invertebrate; conditions: 48 h, read-out: efficacy against soft rot in Chinese cabbages
[15] = tested on: bacterial wilt in tobacco; assay: whole plant or invertebrate; conditions: Nicotiana tabacum, read-out: efficacy against bacterial wilt in tobacco
[16] = tested on: indoor potted cucumber seedlings; assay: Effect of improving growth and development of crops; format: in vivo; parameters: Rate of growth rate increase (%): concentration or dose not given beside the values; conditions: versus blank control; for Rate of chlorophyll content increase (%) / Rate of leaf area increase (%): 14 days after application; for Rate of growth rate increase (%): plant height 14 days after application; for Rate of leaf area increase (%): second leaf
In short: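 SPAD chlorophyll, plant height and second-leaf dimensions measured at application and 14 d later; leaf area from length (base to tip) and width (upper shoulder).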

[17] = tested on: pathogenic bacteria causing stem rot in sweet potatoes; assay: In vitro bactericidal activity, stem rot in sweet potatoes; format: cell-based, dikia; conditions: read-out: inhibitory rate; for inhibition at 1 ppm: dosage 1 ppm; for inhibition at 5 ppm: dosage 5 ppm

Compound	safety for plant growth (discoloration, necrosis, wilt, malformation) [1]	inhibition at 1 ppm [2] [%]	inhibition at 5 ppm [2] [%]	inhibition at 1 ppm [3] [%]	inhibition at 5 ppm [3] [%]	inhibition at 1 ppm [4] [%]	inhibition at 5 ppm [4] [%]	pest or weed control at 5 ppm [5] [%]	pest or weed control at 10 ppm [5] [%]	inhibition at 1 ppm [6] [%]	inhibition at 5 ppm [6] [%]	inhibition at 1 ppm [7] [%]	inhibition at 5 ppm [7] [%]	pest or weed control at 5 ppm [8] [%]	pest or weed control at 10 ppm [8] [%]	inhibition at 1 ppm [9] [%]	inhibition at 5 ppm [9] [%]	pest or weed control at 5 ppm [10] [%]	pest or weed control at 10 ppm [10] [%]	inhibition at 1 ppm [11] [%]	further results
CCNc1cc2c(cc1F)c(=O)c(C(=O)OCCOC)cn2C1CC1 [Compound 408]	safe for plant growth	≥ 90	≥ 90	≥ 90	≥ 90	≥ 90	≥ 90	≥ 90	≥ 90	≥ 90	≥ 90	≥ 90	≥ 90	≥ 90	≥ 90	≥ 90	≥ 90	≥ 90	≥ 90	≥ 90	inhibition at 5 ppm [11]: ≥ 90%; inhibition at 1 ppm [12]: ≥ 90%; inhibition at 5 ppm [12]: ≥ 90%; pest or weed control at 5 ppm [13]: ≥ 90%; pest or weed control at 10 ppm [13]: ≥ 90%; pest or weed control at 5 ppm [14]: ≥ 90%; pest or weed control at 10 ppm [14]: ≥ 90%; pest or weed control at 5 ppm [15]: ≥ 90%; pest or weed control at 10 ppm [15]: ≥ 90%; Rate of chlorophyll content increase (%) [16]: 18%; Rate of growth rate increase (%) [16]: 12%; Rate of leaf area increase (%) [16]: 12%; inhibition at 1 ppm [17]: ≥ 90%; inhibition at 5 ppm [17]: ≥ 90%
CN(C)c1cc2c(cc1F)c(=O)c(C(=O)OCCO)cn2C1CC1 [Compound 413]	safe for plant growth	≥ 90	≥ 90	≥ 90	≥ 90	≥ 90	≥ 90	≥ 90	≥ 90	≥ 90	≥ 90	≥ 90	≥ 90	≥ 90	≥ 90	≥ 90	≥ 90	≥ 90	≥ 90	≥ 90	inhibition at 5 ppm [11]: ≥ 90%; inhibition at 1 ppm [12]: ≥ 90%; inhibition at 5 ppm [12]: ≥ 90%; pest or weed control at 5 ppm [13]: ≥ 90%; pest or weed control at 10 ppm [13]: ≥ 90%; pest or weed control at 5 ppm [14]: ≥ 90%; pest or weed control at 10 ppm [14]: ≥ 90%; pest or weed control at 5 ppm [15]: ≥ 90%; pest or weed control at 10 ppm [15]: ≥ 90%; Rate of chlorophyll content increase (%) [16]: 13%; Rate of growth rate increase (%) [16]: 15%; Rate of leaf area increase (%) [16]: 16%; inhibition at 1 ppm [17]: ≥ 90%; inhibition at 5 ppm [17]: ≥ 90%
COCCOC(=O)c1cn(C2CC2)c2cc(N(C)C)c(F)cc2c1=O [Compound 414]	safe for plant growth	≥ 90	≥ 90	≥ 90	≥ 90	≥ 90	≥ 90	≥ 90	≥ 90	≥ 90	≥ 90	≥ 90	≥ 90	≥ 90	≥ 90	≥ 90	≥ 90	≥ 90	≥ 90	≥ 90	inhibition at 5 ppm [11]: ≥ 90%; inhibition at 1 ppm [12]: ≥ 90%; inhibition at 5 ppm [12]: ≥ 90%; pest or weed control at 5 ppm [13]: ≥ 90%; pest or weed control at 10 ppm [13]: ≥ 90%; pest or weed control at 5 ppm [14]: ≥ 90%; pest or weed control at 10 ppm [14]: ≥ 90%; pest or weed control at 5 ppm [15]: ≥ 90%; pest or weed control at 10 ppm [15]: ≥ 90%; Rate of chlorophyll content increase (%) [16]: 15%; Rate of growth rate increase (%) [16]: 12%; Rate of leaf area increase (%) [16]: 18%; inhibition at 1 ppm [17]: ≥ 90%; inhibition at 5 ppm [17]: ≥ 90%
CCN(CC)c1cc2c(cc1F)c(=O)c(C(=O)OCCO)cn2C1CC1 [Compound 419]	safe for plant growth	≥ 90	≥ 90	≥ 90	≥ 90	≥ 90	≥ 90	≥ 90	≥ 90	≥ 90	≥ 90	≥ 90	≥ 90	≥ 90	≥ 90	≥ 90	≥ 90	≥ 90	≥ 90	≥ 90	inhibition at 5 ppm [11]: ≥ 90%; inhibition at 1 ppm [12]: ≥ 90%; inhibition at 5 ppm [12]: ≥ 90%; pest or weed control at 5 ppm [13]: ≥ 90%; pest or weed control at 10 ppm [13]: ≥ 90%; pest or weed control at 5 ppm [14]: ≥ 90%; pest or weed control at 10 ppm [14]: ≥ 90%; pest or weed control at 5 ppm [15]: ≥ 90%; pest or weed control at 10 ppm [15]: ≥ 90%; Rate of chlorophyll content increase (%) [16]: 15%; Rate of growth rate increase (%) [16]: 11%; Rate of leaf area increase (%) [16]: 17%; inhibition at 1 ppm [17]: ≥ 90%; inhibition at 5 ppm [17]: ≥ 90%
